Experimental findings from patent US5389661A, “Imidazole and 1,2,4-triazole derivatives with angiotensin II antagonist properties” (Warner-Lambert Company, priority 1994, dated 1995) are described below.

Molecules are shown by their SMILES.

The assay concerns the target T1, angiotensin II receptor (rat liver membranes) (Rattus norvegicus, UniProt P25095).
T1 construct: from tissue; host or cells: rat liver membranes
T1 sequence (P25095 1-359): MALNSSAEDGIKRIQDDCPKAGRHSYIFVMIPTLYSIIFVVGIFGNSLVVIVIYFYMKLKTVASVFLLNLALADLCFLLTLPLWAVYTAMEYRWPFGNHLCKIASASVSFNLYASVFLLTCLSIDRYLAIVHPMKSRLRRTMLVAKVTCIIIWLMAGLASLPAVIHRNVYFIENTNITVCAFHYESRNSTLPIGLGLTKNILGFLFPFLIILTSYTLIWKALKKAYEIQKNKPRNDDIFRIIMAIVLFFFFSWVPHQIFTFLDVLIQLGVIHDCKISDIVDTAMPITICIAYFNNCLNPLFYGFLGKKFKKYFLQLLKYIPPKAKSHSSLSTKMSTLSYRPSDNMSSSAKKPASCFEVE
The assay can be described thus: RBAT1, Receptor Binding of Angiotensin II: inhibition of tritiated angiotensin II binding to rat liver membranes. The note with it: in vitro. The protocol:
The effectiveness of the compounds of the instant invention is determined by a test (RBAT1) entitled Receptor Binding of Angiotensin II.
Broadly, the IC50 is the concentration that inhibits the measured activity by half. A lower IC50 goes with greater potency. In turn, `CCCc1ncc(/C=C2\C(=O)N(CC(=O)OC)c3cccc(C)c32)n1Cc1ccc(C(=O)OC)cc1` [Example 4J, Methyl (Z)-2,3-dihydro-3-[[3-[[4-methoxycarbonylphenyl]methyl]-2-propyl-3H-imidazol-4-yl]methylene]-4-methyl-2-oxo-1H-indole-1-acetate] displayed an IC50 of 686 nM.
Molecule `CCCc1ncc(C=C2C(=O)N(C(=O)NC)c3ccccc32)n1Cc1ccc(C(=O)OC)cc1` [Example 2B, Methyl 4-[[(2-propyl-5-[1,2-dihydro-1-(methylaminocarbonyl)-2-oxo-3H-indol-3-ylidene]methyl]-1H-imidazol-1-yl]methyl benzoate] displayed a half-inhibitory concentration (IC50) of 610 nM.
`CCCCc1ncc(C=C2C(=O)Nc3c(OC)cccc32)n1Cc1ccc(C(=O)O)cc1` [Example 3B, 4-[[2-Butyl-5-[(1,2-dihydro-7-methoxy-2-oxo-3H-indol-3-ylidene)methyl]-1H-imidazol-1-yl]methyl]benzoic acid] showed a concentration for half-maximal inhibition (IC50) of 120 nM.
Turning to `CCCc1nc(-n2cccc2)c(/C=C2/C(=O)N(CC(=O)OC)c3ccccc32)n1Cc1ccc(C(=O)OC)cc1` [Example 4B, 1H-Indole-1-acetic acid, 2,3-dihydro-3-[[1-[[4-(methoxycarbonyl)phenyl]methyl]-2-propyl-4-(1H-pyrrol-1-yl)-1H-imidazol-5-yl]methylene]-2-oxo-, methyl ester, (E)], the IC50 was found to be 95 nM.
Take `CCCCc1ncc(C=C2C(=O)N(CCCC)c3ccccc32)n1Cc1ccc(C(=O)OC)cc1Cl` [Example 4K, Methyl 4-[[2-butyl-5-[(1-butyl-1,2-dihydro-2-oxo-3H-indol-3-yliden)methyl]-1H-imidazolyl]methyl]-3-chlorobenzoate]: the half-maximal inhibitory concentration (IC50) worked out at 110 nM.
`CCCCc1ncc(CC2C(=O)Nc3ccccc32)n1Cc1ccc(C(=O)OC)cc1` (racemic) [Example 10, Benzoic acid, 4-[[2-butyl-5-[(2,3-dihydro-2-oxo-1H-indol-3-yl)methyl]-1H-imidazol-1-yl]methyl]-, methyl ester, (±)] yielded an IC50 of 53 nM.
As for `CCCc1ncc(C=C2C(=O)N(C)c3ccccc32)n1Cc1ccc(C(=O)OC)cc1` [Example 1D, Methyl 4-[[2-propyl-5-[(1,2-dihydro-1-methyl-2-oxo-3H-indol-3-ylidene)methyl]-1H-imidazol-1-yl]methyl]benzoate], the figure is 75 nM; as for `CCCCc1ncc(/C=C2/C(=O)N(Cc3ccc(Cl)cc3)c3ccccc32)n1Cc1ccc(C(=O)O)cc1` [Example 4F, Benzoic acid, 4-[[2-butyl-5-[[1-[(4-chlorophenyl)methyl]-2,3-dihydro-2-oxo-1H-indol-3-ylidene]methyl]-1H-imidazol-1-yl]methyl]-, (E)], 256 nM.
`CCCc1ncc(/C=C2/C(=O)N(CC(=O)O)c3ccccc32)n1Cc1ccc(C(=O)O)cc1` [Example 9, (E)-3-[[3-[(4-carboxyphenyl)methyl]-2-propyl-3H-imidazol-4-yl]methylene]-2,3-dihydro-2-oxo-1H-indole-1-acetic acid] came in with an IC50 of 98 nM.
With `CCCc1ncc(C=C2C(=O)N(CCC)c3ccccc32)n1Cc1ccc(C(=O)OC)cc1` [Example 2G, Methyl 4-[[5-[(1,2-dihydro-2-oxo-1-propyl-3H-indol-3-ylidenyl)methyl]-2-propyl-1H-imidazol-1-yl]methyl]benzoate], the IC50 worked out at 746 nM.
With `CCCCc1ncc(/C=C2/C(=O)N(CCC(=O)O)c3ccccc32)n1Cc1ccc(C(=O)O)cc1` [Example 3G, 1H-Indole-1-propanoic acid, 3-[[2-butyl-1-[(4-carboxyphenyl)methyl]-1H-imidazol-5-yl]methylene]-2,3-dihydro-2-oxo -, (E)], the IC50 was determined as 20 nM.
As for `CCCCc1ncc(C=C2C(=O)N(OCC(=O)OC)c3ccccc32)n1Cc1ccc(C(=O)OC)cc1` [Example 4G], the figure is 64 nM; as for `CCCCc1ncc(C=C2C(=O)N(Cc3nn[nH]n3)c3ccccc32)n1Cc1ccc(C(=O)OC)cc1` [Example 5, Benzoic acid, 4-[[2-butyl-5-[[2,3-dihydro-2-oxo-1-(1H-tetrazol-5-ylmethyl)-1H-indol-3-ylidene]methyl]-1H-imidazol-1-yl]methyl]-, methyl ester, (E)], 94 nM; as for `CCCc1nc(-n2cccc2)c(/C=C2/C(=O)N(C)c3ccccc32)n1Cc1ccc(C(=O)OC)cc1` [Example 4A, Benzoic acid, 4-[[5-[(2,3-dihydro-1-methyl-2-oxo-1H-indol-3-ylidene)methyl]-2-propyl-4-(1H-pyrrol-1-yl)-1H-imidazol-1-yl]methyl]-, methyl ester, (E)], 640 nM.
On to `CCCCc1ncc(C=C2C(=O)N(CC#N)c3ccccc32)n1Cc1ccc(C(=O)OC)cc1` [Example 4H, Benzoic acid, 4-[[2-butyl-5-[[1-(cyanomethyl)-2,3-dihydro-2-oxo-1H-indol-3-ylidene]methyl]-1H-imidazol-1-yl]methyl]-, methyl ester, (E)], for which the IC50 was determined as 226 nM.
Next, `CCCCc1ncc(C=C2C(=O)N(CC(=O)O)c3ccccc32)n1Cc1ccc(C(=O)O)cc1` [Example 3C, 3-[[2-Butyl-1-[(4-carboxyphenyl)methyl]-1H-imidazol-5-yl]methylene]-2,3-dihydro-2-oxo-1H-indole-1-acetic acid]: 22 nM; `CCCc1ncc(C=C2C(=O)N(CCC)c3ccccc32)n1Cc1ccc(C(=O)O)cc1` [Example 3I, 4-[[5-[(1,2-dihydro-2-oxo-1-propyl-3H-indol-3-ylidenyl)methyl]-2-propyl-1H-imidazol-1-yl]methyl]benzoic acid]: 140 nM; `CCCc1ncc(/C=C2\C(=O)N(C(C)C)c3ccccc32)n1Cc1ccc(C(=O)OC)cc1` [Example 2F, Benzoic acid, 4-[[5-[[2,3-dihydro-1-(1-methylethyl)-2-oxo-1H-indol-3-ylidene]methyl]. -2-propyl-1H-imidazol-1-yl]methyl]-, methyl ester, (Z)]: 67 nM.
As to `CCCCc1ncc(C=C2C(=O)N(O)c3ccccc32)n1Cc1ccc(C(=O)OC)cc1` [Example 2C], the 50% inhibitory concentration (IC50) was 201 nM.
As for `CCCCc1ncc(C=C2C(=O)Nc3ccccc32)n1Cc1ccc(C(=O)O)cc1` [Example 3, 4-[[2-Butyl-5-[(1,12-dihydro-2-oxo-3H-indol-3-ylidene)methyl]-1H-imidazol-1-yl]methyl]benzoic acid], the half-inhibitory concentration (IC50) is 170 nM.
For the molecule `CCCCc1nc(Cl)c(/C=C2/C(=O)Nc3ccccc32)n1Cc1ccc(C(=O)O)cc1` [Example 3A, (E)-4-[[2-Butyl-4-chloro-5-[(1,2-dihydro-2-oxo-3H-indol-3-ylidene)]-1H-imidazol-1-yl]methyl]benzoic acid], the concentration for half-maximal inhibition (IC50) came to 140 nM.
Consider `CCCc1nc(-n2cccc2)c(/C=C2/C(=O)Nc3ccccc32)n1Cc1ccc(C(=O)O)cc1` [Example 2D, (E)-4-[[5-[(1,2-dihydro-2-oxo-3H-indol-3-ylideny)methyl]-2-propyl-4-(1H-pyrrol-1-yl)-1H-imidazol-1-yl]methyl]benzoic acid], for which the half-maximal inhibitory concentration (IC50) was found to be 86 nM.
`CCCCc1ncc(C=C2C(=O)N(CCCC)c3ccccc32)n1Cc1ccc(C(=O)OC)cc1` [Example 4C, Benzoic acid, 4-[[2-butyl-5-[(1-butyl-2,3-dihydro-2-oxo-1H-indol-3-ylidene)methyl]-1H-imidazol-1-yl]methyl]-, methyl ester] gave an IC50 of 358 nM.
Next, `CCCCc1ncc(C=C2C(=O)N(CC(=O)OCC)c3ccccc32)n1Cc1ccc(-c2nnn[nH]2)cc1` [Example 6A, 1H-Indole-1-acetic acid, 3-[[2-butyl-1-[[4-(1H-tetrazol-5-yl)phenyl]methyl]-1H-imidazol-5yl]methylene]-2,3-dihydro-2-oxo-, ethyl ester]: 12 nM; `CCCc1ncc(/C=C2\C(=O)N(C(CCC)C(=O)OCC)c3cccc(C)c32)n1Cc1ccc(C(=O)OC)cc1` (racemic) [Example 4I, Ethyl (Z)-(±)-2,3,dihydro-3-[[3-[[4-(methoxycarbonylphenyl]methyl]-2-propyl-3H-imidazol-4-yl]methylene]-4-methyl-2-oxo-α-propyl-1H-indole-1-acetat]: 300 nM.
As for `CCCCc1ncc(C=C2C(=O)N(CC(=O)OC)c3ccccc32)n1Cc1ccc(-c2nn[nH]n2)cc1` [Example 6, 1H-Indole-1-acetic acid, 3-[[2-butyl-1-[[4-(1H-tetrazol-5-yl)phenyl]methyl]-1H-imidazol-5yl]methylene]-2,3-dihydro-2-oxo-, methyl ester], the figure is 25 nM.
Next, `CCCCc1ncc(C=C2C(=O)N(O)c3ccccc32)n1Cc1ccc(C(=O)O)cc1` [Example 3F]: 123 nM.
With `CCCc1ncc(/C=C2\C(=O)N(CC(=O)OC)C(=O)c3ccccc32)n1Cc1ccc(C(=O)OC)cc1` [Example 8, 2(1H)-Isoquinolineacetic acid, 3,4-dihydro-4-[[1-[[4-(methoxycarbonyl)phenyl]methyl]-2-propyl-1H-imidazol-5-yl]methylene]-1,3-dioxo-, methyl ester, (Z)], the IC50 came to 47 nM.
As for `CCCCc1ncc(C=C2C(=O)N(CC(=O)O)c3ccccc32)n1Cc1ccc(-c2nnn[nH]2)cc1` [Example 7, 3-[[2-butyl-3-[[4-(1H-tetrazol-5-yl)phenyl]methyl]-3H-imidazol-4-yl]methylene]-2,3-dihydro-2-oxo-1H-indole-1-acetic acid], the IC50 worked out at 5.7 nM.
`CCCCc1ncc(C=C2C(=O)N(CCCC)c3ccccc32)n1Cc1ccc(C(=O)O)cc1Cl` [Example 3H, 4-[[2-butyl-5-[(1-butyl-1,2-dihydro-2-oxo-3H-indol-3-ylidenyl)methyl]-1H-imidazol-1-yl]methyl]-3 chlorobenzoic acid] returned an IC50 of 52 nM.
